Measurements taken from US7666843B2, “Methods and compositions for treatment of neurological disorder” (Children's Medical Center Corporation, priority 2002, dated 2010).
Entries after “also recorded” stand apart in the source; their conditions may differ. Read-outs that look alike come from different tables or passages of the source.

Assays:
Assay type in all cases: cell-based
[1] = test system: rat retinal ganglion cells; experiment: Rat retinal ganglion cell culture, axon outgrowth; conditions: rat RGCs; for axon outgrowth in the presence of forskolin: compared to forskolin alone, glucose up to 5 mM, mannose-6-phosphate up to 10 mM, 9c; for axon outgrowth, agent by itself: 3 days, no other factor added, forskolin 5 μM in FIG. 9a
Description: (§1) Rat retinal ganglion cell cultures. Retinal ganglion cells were identified by retrograde labeling with Fluorogold (FG: Fluorochrome, Inc.). […] After allowing 7 days for FG to be retrogradely transported up the optic nerve, rats were killed, eyes were removed, and the retinas dissected. Retinas were dissociated with papain treatment followed by trituration. Mixed cultures containing 100-150 FG-labeled RGCs per well were maintained in 24 well plates in a defined, serum-free media (Minimal Essential Media containing NaHCO3,) at 37° C. at 5% CO2 for 3 days.

[2] = test system: goldfish retinal ganglion cells; experiment: Goldfish retinal ganglion cell culture, axon outgrowth bioassay; conditions: goldfish RGCs; for axon outgrowth in response to monosaccharides: sugar alone, 50 or 100 μM, D-configuration, FIG. 7a; for axon outgrowth, extracellular 6-phosphate: FIG. 8f; for axon outgrowth in response to glucose/mannose analogs: analog alone (L-enantiomers 100 μM, D-glucosamine 25 μM, 2-deoxy-D-glucose 1 mM), FIG. 8a
Protocol: Goldfish retinal ganglion cells are prepared as described in PCT application serial no. PCT/US98/03001, the contents of which are incorporated herein by reference, and contacted with a hexose derivative such as mannose. The ability of the hexose derivative to stimulate axonal outgrowth from the goldfish retinal ganglion cells is monitored as described in PCT application serial no. PCT/US98/03001.
Goldfish retinal ganglion cell cultures. Mammalian AF-1 was initially characterized in bioassays using dissociated goldfish retinal ganglion cells (RGCs). In brief, Comet variety goldfish (Mt. Parnell Fisheries, PA) were dark-adapted, cooled to 4° C., and killed by cervical transection. Retinas were dissected and dissociated by incubation in papain followed by a series of trituration steps that result in an RGC-enriched cell suspension (Schwartz & Agronoff,; Schwalb et al., 1995). Approximately 500 RGCs per well were plated together with the experimental samples to be tested in defined, serum-free media containing Leibovitz' L15 media (Gibco BRL) plus N1 and N2 supplements (Bottenstein, Saito), antioxidants, and bovine serum albumin as described in detail elsewhere (Schwalb et al., 1995). In each experiment, 4 wells of each sample were distributed in 24-well plates in a blinded fashion so that the person evaluating axon outgrowth was unaware of the type of sample present in each well. Experiments included a positive control (previously validated goldfish AF-1 or inosine) and a negative control (defined media alone), likewise distributed on the plate in quadruplicate in a blinded fashion. After 6 days in culture at 21° C., axon outgrowth, operationally defined as the percent of RGCs that extended an axon≧5 cell diameters in length, was evaluated in approximately 150 consecutively encountered RGCs per well. […] Data are presented as normalized means ± SEM. All experiments were repeated at least 3 times.

[3] = test system: goldfish retinal ganglion cells; experiment: Goldfish retinal ganglion cell culture, cell survival; conditions: MH 10 mM, sugars at low micromolar concentrations
Protocol: Goldfish retinal ganglion cell cultures. Mammalian AF-1 was initially characterized in bioassays using dissociated goldfish retinal ganglion cells (RGCs). In brief, Comet variety goldfish (Mt. Parnell Fisheries, PA) were dark-adapted, cooled to 4° C., and killed by cervical transection. Retinas were dissected and dissociated by incubation in papain followed by a series of trituration steps that result in an RGC-enriched cell suspension (Schwartz & Agronoff,; Schwalb et al., 1995). Approximately 500 RGCs per well were plated together with the experimental samples to be tested in defined, serum-free media containing Leibovitz' L15 media (Gibco BRL) plus N1 and N2 supplements (Bottenstein, Saito), antioxidants, and bovine serum albumin as described in detail elsewhere (Schwalb et al., 1995). In each experiment, 4 wells of each sample were distributed in 24-well plates in a blinded fashion so that the person evaluating axon outgrowth was unaware of the type of sample present in each well. Experiments included a positive control (previously validated goldfish AF-1 or inosine) and a negative control (defined media alone), likewise distributed on the plate in quadruplicate in a blinded fashion. After 6 days in culture at 21° C., axon outgrowth, operationally defined as the percent of RGCs that extended an axon≧5 cell diameters in length, was evaluated in approximately 150 consecutively encountered RGCs per well. Data were analyzed by averaging axon growth in the 4 wells for each sample, subtracting the level of growth found in negative controls (typically 3-5%), and normalizing by the net growth in positive controls (usually 20-40%). Data are presented as normalized means ± SEM. All experiments were repeated at least 3 times.

[4] = test system: rat retinal ganglion cells; experiment: Rat retinal ganglion cell culture, cell survival
Description: as §1

## O=C[C@H](O)[C@@H](O)[C@H](O)[C@H](O)CO [glucose, D-glucose]
[1]; with forskolin, FIG. 9a
  axon outgrowth in the presence of forskolin: failed to induce growth above the level of forskolin alone; also recorded: no effect whatsoever
[1]; with forskolin, FIG. 9a, listed as Glucose
  axon outgrowth in the presence of forskolin: inactive
[1]; with forskolin, high concentrations of glucose, FIG. 9a
  effect of added glucose on mannose-induced growth: not augmented further; also recorded: not altered
[2]
  axon outgrowth in response to monosaccharides: stimulated as much outgrowth as the low molecular weight factor; also recorded: induced axon growth
[2]; sugar by itself, FIG. 7d
  level of axon growth relative to that seen with the vitreous extract: about 70%
[3]
  cell survival (viable RGCs per field): no effect on cell survival; also recorded: not related to any changes in cell survival

## O=C[C@@H](O)[C@@H](O)[C@H](O)[C@H](O)COP(=O)(O)O [D-mannose-6-phosphate]
[1]; with forskolin, FIG. 9a
  axon outgrowth in the presence of forskolin: did not respond
[2]; 100 μM
  axon outgrowth, extracellular 6-phosphate: modest amount of outgrowth
[2]; 1 mM
  axon outgrowth, extracellular 6-phosphate: appreciable growth
[2]
  axon outgrowth in response to glucose/mannose analogs: relatively modest but statistically significant amount of outgrowth
[2]; listed as D-man-6-P
  axon outgrowth in response to glucose/mannose analogs: small but statistically significant level of outgrowth

## O=C[C@@H](O)[C@@H](O)[C@H](O)[C@H](O)CO [mannose, D-mannose]
[1]
  axon outgrowth, agent by itself: marginally significant response
[1]; listed as D-mannose
  axon outgrowth, agent by itself: little effect
[1]; listed as Mannose
  axon outgrowth, agent by itself: small, marginally significant level of outgrowth
[1]; in the presence of forskolin
  increase of axon outgrowth over baseline: 3 fold
[1]; in the presence of forskolin, data not shown, read-out: ED50 of axon outgrowth
  EC50: ~10 µM
[1]; with forskolin, FIG. 9a
  axon outgrowth in the presence of forskolin: more than doubled the level axon growth induced by forskolin alone; also recorded: striking increase in outgrowth; also recorded: respond strongly
[2]; Carassius auratus, FIG. 7c, read-out: ED50 of axon outgrowth
  EC50: ~10 µM
[2]; FIG. 7c
  concentration at which the effect on axon outgrowth saturates: 25 to 50 µM
[2]
  axon outgrowth in response to monosaccharides: stimulated as much outgrowth as the low molecular weight factor; also recorded: induced axon growth
[4]
  cell survival (viable RGCs per field): not related to cell survival; also recorded: independent of any changes in cell survival
[4]; listed as D-mannose
  cell survival (viable RGCs per field): unrelated to changes in cell survival
[3]
  cell survival (viable RGCs per field): no effect on cell survival; also recorded: not related to any changes in cell survival

## O=C(CO)[C@@H](O)[C@@H](O)[C@H](O)[C@H](O)CO [MH, mannoheptulose]
[2]; KT5720 1 μM, MH 10 mM, dBcAMP, late fraction with 50 μM mannose
  effect on mannose-induced axon outgrowth: had no effect on outgrowth induced by glucose or mannose; also recorded: has no effect on outgrowth induced by glucose or mannose
[2]; glucose 10 μM (50 μM with late fraction), dBcAMP 1 mM, forskolin 10 μM, Rp-cAMPs 100 μM, 3-O-MG 100:1, 2-DG 1 mM, MH 10 mM
  effect on glucose-induced axon outgrowth: had no effect on outgrowth induced by glucose or mannose; also recorded: has no effect on outgrowth induced by glucose or mannose
[3]
  cell survival (viable RGCs per field): detrimental to cell survival; also recorded: decreases cell survival
